Tests used:
Assay in all cases: Example B2 herbicidal action, post-emergence, pots in glasshouse, damage score 0-10
Type in all cases: in vivo
Conditions in all cases: application post-emergence, rate 1000 g/ha, evaluated after 13 days
Setaria faberi = system: Setaria faberi
Summary of the method: (§1)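 Evaluation took place 13 days post-spray. Treatment used an acetone/water (50:50), 0.5% Tween 20 formulation applied to 8-day-old potted plants, held at 24/16 °C with 14 h light, 65% humidity and twice-daily watering.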

Ipomea hederaceae = system: Ipomea hederaceae
Summary of the method: as §1

Solanum nigrum = system: Solanum nigrum
Summary of the method: as §1

Amaranthus retroflexus = system: Amaranthus retroflexus
Summary of the method: as §1

Echinochloa crus-galli = system: Echinochloa crus-galli
Summary of the method: as §1

Structure (SMILES)	SETFA damage score (10=total damage to plant; 0=no damage to plant) (Setaria faberi)	IPOHE damage score (10=total damage to plant; 0=no damage to plant) (Ipomea hederaceae)	SOLNI damage score (10=total damage to plant; 0=no damage to plant) (Solanum nigrum)	AMARE damage score (10=total damage to plant; 0=no damage to plant) (Amaranthus retroflexus)	ECHCG damage score (10=total damage to plant; 0=no damage to plant) (Echinochloa crus-galli)
CC(C)C(=O)OC1=C(c2c(F)ccc(Cl)c2Cl)S(=O)(=O)N(CC(F)F)c2nccnc21 [Compound C36]	3	10	9	9	7
CCc1cc(C)cc(CC)c1C1=C(OC(=O)C(C)C)c2nccnc2N(CC(F)F)S1(=O)=O [Compound C48]	0	6	5	3	0
CC(C)C(=O)OC1=C(c2ccc(Cl)cc2Cl)S(=O)(=O)N(CC(F)(F)F)c2nccnc21 [Compound C57]	3	10	10	10	4
CCN1c2nccnc2C(O)=C(c2cc(Cl)ccc2C(F)(F)F)S1(=O)=O [Compound D52]	4	5	7	5	4
CCN1c2nccnc2C(OC(=O)C(C)C)=C(c2cccc(C(F)(F)F)c2Cl)S1(=O)=O [Compound C75]	0	2	6	5	1
O=S1(=O)C(c2c(Br)cccc2Br)=C(O)c2nccnc2N1CC(F)F [Compound D28]	8	8	9	10	8
CC(C)C(=O)OC1=C(c2cc(I)ccc2Cl)S(=O)(=O)N(CC(F)F)c2nccnc21 [Compound C54]	2	8	8	6	3
CCN1c2nccnc2C(O)=C(c2cccc(C(F)(F)F)c2)S1(=O)=O [Compound D3]	0	1	1	10	1
CCSC(=O)OC1=C(c2cc(C(F)(F)F)ccc2Cl)S(=O)(=O)N(CC)c2nccnc21 [Compound C87]	0	9	10	7	5
CC(C)C(=O)OC1=C(c2ccccc2C(F)(F)F)S(=O)(=O)N(CC(F)F)c2nccnc21 [Compound C61]	10	10	10	10	9
O=S1(=O)C(c2c(C(F)(F)F)cccc2C(F)(F)F)=C(O)c2nccnc2N1CC(F)F [Compound D42]	7	9	8	7	4
O=S1(=O)C(c2c(C(F)(F)F)ccc(Cl)c2Cl)=C(O)c2nccnc2N1CC(F)F [Compound D57]	10	7	10	10	9
CCN1c2nccnc2C(OC(=O)C(C)(C)C)=C(c2c(Cl)ccc(Cl)c2Cl)S1(=O)=O [Compound C72]	1	10	10	9	6
O=S1(=O)C(c2cc(C(F)(F)F)ccc2C(F)(F)F)=C(O)c2nccnc2N1CC(F)F [Compound D22]	6	10	10	10	7
CCN1c2nccnc2C(OC(=O)C(C)C)=C(c2ccccc2OC(F)(F)F)S1(=O)=O [Compound C13]	3	10	9	10	10
CC(C)C(=O)OC1=C(c2ccccc2SC(F)(F)F)S(=O)(=O)N(CC(F)F)c2nccnc21 [Compound C18]	0	6	3	9	1
CS(=O)(=O)OC1=C(c2cc(C(F)(F)F)ccc2Cl)S(=O)(=O)N(CC(F)F)c2nccnc21 [Compound C83, methanesulfonic acid 3-(2-chloro-5-trifluoromethyl-phenyl)-1-(2,2-difluoro-ethyl)-2,2-dioxo-1,2-dihydro-2-λ-6-thia-1,5,8-triaza-naphthalen-4-yl ester]	1	10	10	9	7
CN1c2nccnc2C(OC(=O)C(C)(C)C)=C(c2c(Cl)ccc(Cl)c2Cl)S1(=O)=O [Compound C93]	0	6	6	0	3
CC(C)(C)C(=O)OC1=C(c2ccccc2C(F)(F)F)S(=O)(=O)N(CC(F)F)c2nccnc21 [Compound C62]	6	8	6	7	4
CCN1c2nccnc2C(O)=C(c2cccc(Cl)c2Cl)S1(=O)=O [Compound D49]	1	6	8	4	1
O=S1(=O)C(c2ccc(C(F)(F)F)cc2C(F)(F)F)=C(O)c2nccnc2N1CC(F)F [Compound D55]	4	10	10	10	5
CC(C)C(=O)OC1=C(c2ccc(Br)cc2C(F)(F)F)S(=O)(=O)N(CC(F)F)c2nccnc21 [Compound C132]	7	10	10	10	6

Reference: patent US8133849B2, “Herbicidal compounds” (Syngenta Limited, priority 2007, dated 2012)
